Data as given in PubChem BioAssay (NCI).
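Exposure lasted 48 hours, with cells grown in 96-well plates and compounds tested at five concentrations. At the GI50, growth is halved. TGI: total growth inhibition.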

Assays:
Assay in all cases: inhibition of tumour cell growth, NCI panel, 48 h
M14 melanoma = system: M14 melanoma
MDA-MB-435 = system: MDA-MB-435
NCI-H460 lung = system: NCI-H460 lung
OVCAR-3 ovarian = system: OVCAR-3 ovarian
PC-3 prostate = system: PC-3 prostate
SK-MEL-5 melanoma = system: SK-MEL-5 melanoma
SK-OV-3 ovarian = system: SK-OV-3 ovarian
UACC-62 melanoma = system: UACC-62 melanoma
UO-31 renal = system: UO-31 renal
OVCAR-4 ovarian = system: OVCAR-4 ovarian

Question: For `Nc1ccc(/C=C/c2ccc3cccnc3c2)cc1`, which TGI (M14 melanoma) is on record?
Answer: > 100 µM

Question: And the TGI (MDA-MB-435)?
Answer: > 100 µM

Question: And the TGI (NCI-H460 lung)?
Answer: > 100 µM

Question: What about the TGI (OVCAR-3 ovarian) of the same compound?
Answer: > 100 µM

Question: And the TGI (PC-3 prostate)?
Answer: > 100 µM

Question: And the TGI (SK-MEL-5 melanoma)?
Answer: > 100 µM

Question: What about the TGI (SK-OV-3 ovarian) of the same compound?
Answer: > 100 µM

Question: And the TGI (UACC-62 melanoma)?
Answer: > 100 µM

Question: What about the TGI (UO-31 renal) of the same compound?
Answer: > 100 µM

Question: Which results are given for `CC(=O)[O-].N.N.N.N.[Co+3].[O-][Cl+3]([O-])([O-])[O-].[OH3+]`?
Answer: GI50 (M14 melanoma): > 100 µM; TGI (M14 melanoma): > 100 µM; GI50 (NCI-H460 lung): > 100 µM; TGI (NCI-H460 lung): > 100 µM; GI50 (OVCAR-3 ovarian): > 100 µM; TGI (OVCAR-3 ovarian): > 100 µM; GI50 (OVCAR-4 ovarian): > 100 µM; TGI (OVCAR-4 ovarian): > 100 µM; GI50 (SK-MEL-5 melanoma): > 100 µM; TGI (SK-MEL-5 melanoma): > 100 µM; GI50 (SK-OV-3 ovarian): > 100 µM; TGI (SK-OV-3 ovarian): > 100 µM; GI50 (UACC-62 melanoma): > 100 µM; TGI (UACC-62 melanoma): > 100 µM; GI50 (UO-31 renal): 84.6 µM; TGI (UO-31 renal): > 100 µM

Question: Which results are given for `CN(N)c1nc(N)c(C#N)c(C#N)c1C#N`?
Answer: TGI (M14 melanoma): > 10 µM; TGI (MDA-MB-435): > 10 µM; TGI (OVCAR-3 ovarian): > 10 µM; TGI (OVCAR-4 ovarian): > 10 µM; TGI (PC-3 prostate): > 10 µM; TGI (SK-MEL-5 melanoma): > 10 µM; TGI (SK-OV-3 ovarian): > 10 µM; TGI (UACC-62 melanoma): > 10 µM

Question: For `COc1ccc2c(c1)CN1CCc3c(cc(OC)c(OC)c3OC)C1C2` (configuration not stated), which TGI (M14 melanoma) is on record?
Answer: > 100 µM

Question: What about the TGI (OVCAR-3 ovarian) of the same compound?
Answer: > 100 µM

Question: And the TGI (OVCAR-4 ovarian)?
Answer: > 100 µM

Question: What about the TGI (SK-MEL-5 melanoma) of the same compound?
Answer: > 100 µM

Question: What about the TGI (SK-OV-3 ovarian) of the same compound?
Answer: > 100 µM

Question: What about the TGI (UACC-62 melanoma) of the same compound?
Answer: > 100 µM

Question: And the TGI (UO-31 renal)?
Answer: > 100 µM

Question: Which results are given for `O=c1c2cc3ccccc3n2c(=O)c2cc3ccccc3n12`?
Answer: TGI (M14 melanoma): > 100 µM; TGI (NCI-H460 lung): > 100 µM; TGI (OVCAR-3 ovarian): > 100 µM; TGI (OVCAR-4 ovarian): > 100 µM; TGI (SK-MEL-5 melanoma): > 100 µM; TGI (UACC-62 melanoma): > 100 µM; TGI (UO-31 renal): > 100 µM
